Assay results as given in the NIST ThermoML archive (doi:10.1016/j.jct.2015.07.005).
“And” between values parts separate entries of the source, which are not always exact repeats. Equal values may be shown once.

Details: Gas, Frequency=0.005 MHz, Spherical cavity resonance method

COC(F)(F)C(F)(F)C(F)(F)F [heptafluoropropyl methyl ether]
Details	speed of sound
324.96 K, 164.7 kPa	110.67 m/s
324.97 K, 64.71 kPa	115.86 m/s and 115.86 m/s
324.97 K, 95.55 kPa	114.33 m/s
324.97 K, 95.56 kPa	114.33 m/s
324.97 K, 95.57 kPa	114.33 m/s
324.97 K, 95.59 kPa	114.33 m/s
324.97 K, 133.44 kPa	112.39 m/s
324.97 K, 133.45 kPa	112.39 m/s
324.97 K, 164.69 kPa	110.67 m/s
324.97 K, 164.72 kPa	110.67 m/s
349.97 K, 63.93 kPa	120.9 m/s
349.97 K, 63.94 kPa	120.9 m/s
349.97 K, 154.62 kPa	117.37 m/s
349.97 K, 154.64 kPa	117.37 m/s
349.97 K, 235.72 kPa	113.96 m/s
349.97 K, 235.74 kPa	113.96 m/s
349.97 K, 235.77 kPa	113.96 m/s
349.97 K, 317.58 kPa	110.17 m/s
349.97 K, 317.59 kPa	110.17 m/s
349.97 K, 317.63 kPa	110.17 m/s
374.95 K, 63.1 kPa	125.6 m/s and 125.6 m/s
374.95 K, 63.11 kPa	125.6 m/s
374.95 K, 160.58 kPa	122.61 m/s
374.95 K, 160.6 kPa	122.61 m/s
374.95 K, 285.28 kPa	118.5 m/s
374.95 K, 285.32 kPa	118.5 m/s
374.95 K, 285.36 kPa	118.5 m/s
374.95 K, 400.83 kPa	114.37 m/s
374.95 K, 400.86 kPa	114.37 m/s
374.95 K, 400.9 kPa	114.36 m/s
374.95 K, 510.48 kPa	110.03 m/s
374.95 K, 510.5 kPa	110.03 m/s
374.95 K, 632.78 kPa	104.58 m/s
374.95 K, 632.8 kPa	104.58 m/s
374.95 K, 632.82 kPa	104.58 m/s
374.96 K, 63.11 kPa	125.6 m/s
374.96 K, 160.58 kPa	122.61 m/s
399.99 K, 67.78 kPa	129.91 m/s
399.99 K, 197.55 kPa	126.68 m/s
399.99 K, 349.57 kPa	122.65 m/s
399.99 K, 650.2 kPa	113.69 m/s
399.99 K, 650.23 kPa	113.69 m/s
399.99 K, 806.55 kPa	108.28 m/s
399.99 K, 953.71 kPa	102.52 m/s
399.99 K, 953.73 kPa	102.52 m/s
399.99 K, 1130.3 kPa	94.29 m/s
400 K, 67.78 kPa	129.91 m/s
400 K, 197.63 kPa	126.68 m/s
400 K, 197.66 kPa	126.68 m/s
400 K, 349.52 kPa	122.65 m/s
400 K, 349.53 kPa	122.65 m/s
400 K, 502.98 kPa	118.27 m/s
400 K, 503.01 kPa	118.27 m/s
400 K, 503.03 kPa	118.27 m/s
400 K, 805.95 kPa	108.3 m/s
400 K, 805.97 kPa	108.3 m/s
400 K, 805.99 kPa	108.3 m/s
400 K, 806.53 kPa	108.28 m/s
400 K, 806.58 kPa	108.28 m/s
400 K, 953.71 kPa	102.52 m/s
400 K, 1130.2 kPa	94.3 m/s
424.94 K, 60.05 kPa	134.29 m/s
424.94 K, 60.06 kPa	134.29 m/s
424.94 K, 200.53 kPa	131.44 m/s
424.94 K, 200.58 kPa	131.44 m/s
424.94 K, 407.75 kPa	127 m/s
424.94 K, 407.78 kPa	127 m/s
424.94 K, 407.79 kPa	127 m/s
424.94 K, 407.83 kPa	127 m/s
424.94 K, 603.76 kPa	122.51 m/s
424.94 K, 603.77 kPa	122.51 m/s
424.94 K, 603.81 kPa	122.51 m/s
424.94 K, 802.02 kPa	117.61 m/s
424.94 K, 802.08 kPa	117.6 m/s
424.94 K, 802.15 kPa	117.6 m/s
424.94 K, 1005.8 kPa	112.1 m/s
424.94 K, 1006 kPa	112.1 m/s
424.94 K, 1006.1 kPa	112.09 m/s
424.94 K, 1202.6 kPa	106.2 m/s and 106.21 m/s
424.94 K, 1202.7 kPa	106.2 m/s
424.94 K, 1393 kPa	99.76 m/s
424.94 K, 1393.1 kPa	99.76 m/s
424.94 K, 1393.2 kPa	99.75 m/s
424.94 K, 1607.6 kPa	91.22 m/s
424.94 K, 1607.7 kPa	91.21 m/s
424.94 K, 1608.4 kPa	91.18 m/s
424.94 K, 1608.5 kPa	91.17 m/s
424.94 K, 1608.7 kPa	91.17 m/s
449.95 K, 64.75 kPa	138.25 m/s
449.95 K, 64.76 kPa	138.25 m/s
449.95 K, 208.64 kPa	135.84 m/s
449.95 K, 208.65 kPa	135.84 m/s
449.95 K, 396.59 kPa	132.57 m/s
449.95 K, 396.63 kPa	132.57 m/s
449.95 K, 396.66 kPa	132.57 m/s
449.95 K, 606.05 kPa	128.76 m/s
449.95 K, 606.08 kPa	128.76 m/s
449.95 K, 606.12 kPa	128.76 m/s
449.95 K, 606.24 kPa	128.76 m/s
449.95 K, 606.26 kPa	128.76 m/s
449.95 K, 606.27 kPa	128.76 m/s
449.95 K, 809.63 kPa	124.87 m/s
449.95 K, 809.64 kPa	124.87 m/s
449.95 K, 1001.1 kPa	121.03 m/s and 121.04 m/s
449.95 K, 1209.6 kPa	116.6 m/s
449.95 K, 1209.7 kPa	116.6 m/s
449.95 K, 1413.8 kPa	111.99 m/s
449.95 K, 1623.9 kPa	106.9 m/s
449.96 K, 1001.1 kPa	121.04 m/s
449.96 K, 1624.3 kPa	106.89 m/s
475 K, 67.47 kPa	142.11 m/s
475 K, 67.48 kPa	142.11 m/s
475 K, 67.49 kPa	142.12 m/s
475 K, 67.62 kPa	142.11 m/s
475 K, 67.64 kPa	142.11 m/s
475 K, 189.2 kPa	140.43 m/s
475 K, 189.28 kPa	140.42 m/s
475 K, 395.98 kPa	137.47 m/s
475 K, 395.99 kPa	137.47 m/s
475 K, 396.05 kPa	137.47 m/s
475 K, 396.11 kPa	137.47 m/s
475 K, 396.13 kPa	137.47 m/s
475 K, 396.16 kPa	137.47 m/s
475.01 K, 396.09 kPa	137.47 m/s
475.01 K, 396.11 kPa	137.47 m/s
475.01 K, 587.06 kPa	134.67 m/s
475.01 K, 795.76 kPa	131.5 m/s
475.01 K, 1005.5 kPa	128.23 m/s
475.01 K, 1197.2 kPa	125.14 m/s
475.01 K, 1402 kPa	121.75 m/s
475.01 K, 1402.1 kPa	121.75 m/s
475.02 K, 795.76 kPa	131.5 m/s
475.02 K, 1005.5 kPa	128.23 m/s
475.02 K, 1197.2 kPa	125.14 m/s
475.02 K, 1402.1 kPa	121.75 m/s
475.02 K, 1583.1 kPa	118.65 m/s
475.02 K, 1583.2 kPa	118.65 m/s
500.01 K, 62.05 kPa	145.96 m/s
500.01 K, 62.06 kPa	145.96 m/s
500.01 K, 62.27 kPa	145.95 m/s
500.01 K, 192.99 kPa	144.43 m/s
500.01 K, 193.25 kPa	144.42 m/s
500.01 K, 193.35 kPa	144.42 m/s
500.01 K, 400.4 kPa	141.96 m/s
500.01 K, 400.43 kPa	141.96 m/s
500.01 K, 400.48 kPa	141.96 m/s
500.01 K, 400.64 kPa	141.97 m/s
500.01 K, 400.67 kPa	141.97 m/s
500.01 K, 605.81 kPa	139.49 m/s
500.01 K, 804.2 kPa	137.05 m/s
500.02 K, 400.69 kPa	141.97 m/s
500.02 K, 605.7 kPa	139.49 m/s
500.02 K, 804.24 kPa	137.05 m/s
500.02 K, 804.31 kPa	137.05 m/s
500.02 K, 1002.8 kPa	134.57 m/s
500.02 K, 1206.9 kPa	131.99 m/s and 131.98 m/s
500.02 K, 1207 kPa	131.98 m/s
500.02 K, 1400.6 kPa	129.51 m/s and 129.5 m/s
500.02 K, 1400.7 kPa	129.5 m/s
500.02 K, 1593.1 kPa	127 m/s
500.03 K, 1593.1 kPa	127.01 m/s and 127 m/s
